US20230405002A1, “COMBINATIONS OF DIACYLGLYCEROL ACYLTRANSFERASE 2 INHIBITORS AND ACETYL-COA CARBOXYLASE INHIBITOR” (Pfizer Inc., priority 2020, published 2023)

What was measured:
[1] = test system: Western diet fed Sprague Dawley rats; test: Compound A / Compound D study in Western diet fed rats: fed and fasted plasma triglycerides; type: in vivo, rat; settings: for increase in fasted plasma TG / reduction of fasted plasma TG: relative to vehicle administered Western diet fed rats; for increase in plasma TG in the fed state / reduction of plasma TG in the fed state: relative to vehicle-administered Western diet fed rats
Procedure: (§1) A randomized, vehicle-controlled, 8-parallel arm study was conducted in male Sprague-Dawley rats (Charles River (Boston, MA)) to obtain circulating and hepatic TG levels. Standard laboratory conditions were used to house 96 rats (˜200 g); they were double housed and kept under 12:12-hour reverse light-dark schedule (lights off at 8:00 AM). Rats were randomized into chow or Western diet groups and dose groups upon arrival and were given a 14-day lead-in period on either standard rat chow or Western diet prior to the start of the study. Standard Laboratory Rodent chow diet, 5053, was from LabDiet (PMI, St Louis, Missouri). Western Diet, D12079Bi, was from Research Diets (New Brunswick, NJ).
For these studies, vehicle was prepared to make a 0.5% (wt/volume) of methyl cellulose (MC, Sigma Aldrich, 274429) in deionized water.
Fed plasma analytes: Blood for determining fed plasma TG concentrations was collected 2 hours post dose (2 hours into the dark cycle) via lateral tail vein, transferred to BD Microtainer tubes coated with dipotassium ethylenediaminetetraacetic acid (K2EDTA) (PN365974), and centrifuged at 4° C. The resulting plasma samples were then analyzed on a Siemens Chemistry XPT clinical analyzer (Malven, PA) using Siemens triglycerides_2 assay reagents (ref 10335892).
Fasted plasma analytes: Blood for determining fasted plasma TG was collected after a 4 hour fast, 2 hours post-dose (2 hours into the dark cycle) via lateral tail vein, transferred to BD Microtainer tubes coated with K2EDTA (PN365974), and centrifuged at 4° C. The resulting plasma samples were then analyzed on a Siemens Chemistry XPT clinical analyzer (Malven, PA) using Siemens triglycerides 2 assay reagents (ref 10335892).

[2] = test system: ACC1, FASN, SCD1, PCSK9 and SREBP-1c; test: Compound A / Compound D study in Western diet fed rats: hepatic lipogenic gene expression (qPCR); type: in vivo, rat; settings: relative to Western diet fed vehicle treated rats
Procedure: as §1
Another portion of the pulverized liver was processed and analyzed for lipogenic gene expression. Rat taqman probes against ACC1, FASN, SCD1, PCSK9 and SREBP-1c were all assessed using Actb as housekeeping gene on qPCR.

[3] = test system: CDAHFD fed male Wistar-Han rats; test: CDAHFD rat study: liver histology (αSMA IHC, Picrosirius red, Iba1 staining); type: in vivo; settings: Compound A 5 mg/kg, Compound D 30 mg/kg twice daily, 6 weeks
Text: (§2) Standard laboratory conditions were used to house 60 rats (˜200 g); they were double housed and kept under 12:12-hour reverse light-dark schedule (lights off at 8:00 AM). Rats were fed choline deficient and high fat diet (CDAHFD) beginning 6-weeks prior to initiation of the study. […] Animals (n=12) remaining on normal chow throughout the study and administered twice-daily vehicle were used as a control group. Blood samples were collected prior to starting compound administration and 3- and 6-week post compound administration for the assessment of circulating markers. Shearwave elastography (Aixplorer Ultimate imager, Supersoinc imagine) measurements were made at Week −3, Week 0 (prior to 1st dose), Week 3 and Week 6 to assess inflammation and fibrosis progression over time. Histology was assessed following 6-weeks of drug administration which corresponded to 12 weeks on the CDAHFD. Results are provided as an average of animals per each dosing group.
Following the 12-weeks on CDAHFD, the animals were sacrificed by CO2 asphyxiation. The right lateral, medial and left lateral lobes of the liver were harvested. Sections were taken from the left lateral, right medial and right lateral lobes and fixed in formalin and processed to paraffin blocks per animal. One section of left lateral lobe per animal was cryopreserved in optimal cutting temperature (OCT) compound. The remainder of the liver from each animal was frozen and rapidly pulverized on an aluminum block cooled in liquid N2, ensuring the tissue remained frozen throughout the pulverization. The pulverized tissue was transferred and stored at −80° C. until analysis. A portion of the pulverized liver sample from each animal was processed and analyzed for gene expression markers of fibrogenesis. Rat taqman probes against αSMA and COL1A1 were all assessed using Actb as housekeeping gene on qPCR.
The following endpoints were evaluated by qualitative histologic evaluation by a board certified veterinary pathologist and quantitative histomorphometry: hepatic stellate cell activation and differentiation into myofibroblasts by αSMA immunohistochemistry (IHC); Collagen as a correlate of fibrosis by Picrosirius Red stain. Images were analyzed using Visiopharm software. Visiopharm applications with threshold parameters were applied uniformly to identify tissue sections and to quantify the targets on each IHC (DAB (3,3′-diaminobenzidine) positive) or histochemically stained slides as percent area: stain area of interest/Total tissue ROI−whitespace)×100%. Non-parametric statistics were used to analyze data from this study. Group values were reported as mean+/− the standard error of the mean.

αSMA and COL1A1 = test: CDAHFD rat study: hepatic αSMA and COL1A1 gene expression (qPCR); type: in vivo; settings: Compound A 5 mg/kg, Compound D 30 mg/kg twice daily, 6 weeks
Text: as §2
Following the 12-weeks on CDAHFD, the animals were sacrificed by CO2 asphyxiation. The right lateral, medial and left lateral lobes of the liver were harvested. […] A portion of the pulverized liver sample from each animal was processed and analyzed for gene expression markers of fibrogenesis. Rat taqman probes against αSMA and COL1A1 were all assessed using Actb as housekeeping gene on qPCR.

[4] = high dose (Compound A 10 mg/kg QD)
[5] = low dose (Compound A 1 mg/kg QD)

Row | Compound | increase in fasted plasma TG [1, 4] [fold] | increase in plasma TG in the fed state [1, 4] [fold] | increase in fasted plasma TG [1, 5] [fold] | increase in plasma TG in the fed state [1, 5] [fold] | hepatic lipogenic gene expression (ACC1, FASN, SCD1, SREBP1, PCSK9) [2] | reduction of Iba1 staining [3] | reduction of Picosrius red (PSR) staining [3] [%] | reduction of αSMA staining [3] [%] | hepatic αSMA and COL1A1 gene expression (αSMA and COL1A1) | reduction of plasma TG in the fed state ([1]; high dose (Compound A 10 mg/kg QD, Compound D 30 mg/kg BID)) [%] | reduction of fasted plasma TG ([1]; high dose (Compound D 30 mg/kg BID)) [%] | reduction of plasma TG in the fed state ([1]; low dose (Compound A 1 mg/kg QD, Compound D 5 mg/kg BID)) [%] | reduction of fasted plasma TG ([1]; low dose (Compound D 5 mg/kg BID)) [%]
1 | COc1cc(C(=O)N2CCC3(CC2)CC(=O)c2c(cnn2C(C)C)C3)cc(-c2ccc(C(=O)O)cc2)n1 [Compound A, 4-(4-(1-isopropyl-7-oxo-1,4,6,7-tetrahydrospiro[indazole-5,4′-piperidine]-1′-carbonyl)-6-methoxypyridin-2-yl)benzoic acid] | 1.7 | 1.3 | 2.4 | 1.7 | trended to further increase | 15% | 26 | 41 | reduced hepatic αSMA and COL1A1 gene expression | – | – | – | –
2 | CCOc1cccnc1Oc1cncc(-c2ncc(C(=O)N[C@H]3CCOC3)cn2)c1 [Compound D, (S)-2-(5-((3-ethoxypyridin-2-yl)oxy)pyridin-3-yl)-N-(tetrahydrofuran-3-yl)pyrimidine-5-carboxamide] | – | – | – | – | decreased expression of all of the lipogenic genes | did not alter Iba1 staining | 20 | 23 | reduced hepatic αSMA and COL1A1 gene expression | 63 | 35 | 55 | 20
